Source: US8642609B2, “Modulators of ATP-binding cassette transporters” (Vertex Pharmaceuticals Incorporated, priority 2003, dated 2014)

Target: T1, ΔF508-CFTR (Homo sapiens, UniProt P13569, DEL508-508)
T1 construct: expressed in transfected cells
Assay: Membrane potential optical assay (FRET/VIPR), identification of correction compounds
Type: cell-based
Conditions: for Emax: relative efficacy
Text: I) Membrane Potential Optical Methods for Assaying ΔF508-CFTR Modulation Properties of Compounds
The optical membrane potential assay utilized voltage-sensitive FRET sensors described by Gonzalez and Tsien (See, Gonzalez, J. E. and R. Y. Tsien (1995) “Voltage sensing by fluorescence resonance energy transfer in single cells” Biophys J 69(4): 1272-80, and Gonzalez, J. E. and R. Y. Tsien (1997) “Improved indicators of cell membrane potential that use fluorescence resonance energy transfer” Chem Biol 4(4): 269-77) in combination with instrumentation for measuring fluorescence changes such as the Voltage/Ion Probe Reader (VIPR) (See, Gonzalez, J. E., K. Oades, et al. (1999) “Cell-based assays and instrumentation for screening ion-channel targets” Drug Discov Today 4(9): 431-439).
These voltage sensitive assays are based on the change in fluorescence resonant energy transfer (FRET) between the membrane-soluble, voltage-sensitive dye, DiSBAC2(3), and a fluorescent phospholipid, CC2-DMPE, which is attached to the outer leaflet of the plasma membrane and acts as a FRET donor. Changes in membrane potential (Vm) cause the negatively charged DiSBAC2(3) to redistribute across the plasma membrane and the amount of energy transfer from CC2-DMPE changes accordingly. The changes in fluorescence emission were monitored using VIPR™ II, which is an integrated liquid handler and fluorescent detector designed to conduct cell-based screens in 96- or 384-well microtiter plates.
Identification of Correction Compounds
To identify small molecules that correct the trafficking defect associated with ΔF508-CFTR; a single-addition HTS assay format was developed. The cells were incubated in serum-free medium for 16 hrs at 37° C. in the presence or absence (negative control) of test compound. As a positive control, cells plated in 384-well plates were incubated for 16 hrs at 27° C. to “temperature-correct” ΔF508-CFTR. The cells were subsequently rinsed 3× with Krebs Ringers solution and loaded with the voltage-sensitive dyes. To activate ΔF508-CFTR, 10 μM forskolin and the CFTR potentiator, genistein (20 μM), were added along with Cl^−-free medium to each well. The addition of Cl^−-free medium promoted Cl^− efflux in response to ΔF508-CFTR activation and the resulting membrane depolarization was optically monitored using the FRET-based voltage-sensor dyes.
NIH3T3 mouse fibroblasts stably expressing ΔF508-CFTR are used for optical measurements of membrane potential. The cells are maintained at 37° C. in 5% CO2 and 90% humidity in Dulbecco's modified Eagle's medium supplemented with 2 mM glutamine, 10% fetal bovine serum, 1×NEAA, β-ME, 1× pen/strep, and 25 mM HEPES in 175 cm^2 culture flasks. For all optical assays, the cells were seeded at 30,000/well in 384-well matrigel-coated plates and cultured for 2 hrs at 37° C. before culturing at 27° C. for 24 hrs. for the potentiator assay. For the correction assays, the cells are cultured at 27° C. or 37° C. with and without compounds for 16-24 hours B) Electrophysiological Assays for assaying ΔF508-CFTR modulation properties of compounds

T1 sequence (P13569 with tags, fused parts or gaps DEL508-508): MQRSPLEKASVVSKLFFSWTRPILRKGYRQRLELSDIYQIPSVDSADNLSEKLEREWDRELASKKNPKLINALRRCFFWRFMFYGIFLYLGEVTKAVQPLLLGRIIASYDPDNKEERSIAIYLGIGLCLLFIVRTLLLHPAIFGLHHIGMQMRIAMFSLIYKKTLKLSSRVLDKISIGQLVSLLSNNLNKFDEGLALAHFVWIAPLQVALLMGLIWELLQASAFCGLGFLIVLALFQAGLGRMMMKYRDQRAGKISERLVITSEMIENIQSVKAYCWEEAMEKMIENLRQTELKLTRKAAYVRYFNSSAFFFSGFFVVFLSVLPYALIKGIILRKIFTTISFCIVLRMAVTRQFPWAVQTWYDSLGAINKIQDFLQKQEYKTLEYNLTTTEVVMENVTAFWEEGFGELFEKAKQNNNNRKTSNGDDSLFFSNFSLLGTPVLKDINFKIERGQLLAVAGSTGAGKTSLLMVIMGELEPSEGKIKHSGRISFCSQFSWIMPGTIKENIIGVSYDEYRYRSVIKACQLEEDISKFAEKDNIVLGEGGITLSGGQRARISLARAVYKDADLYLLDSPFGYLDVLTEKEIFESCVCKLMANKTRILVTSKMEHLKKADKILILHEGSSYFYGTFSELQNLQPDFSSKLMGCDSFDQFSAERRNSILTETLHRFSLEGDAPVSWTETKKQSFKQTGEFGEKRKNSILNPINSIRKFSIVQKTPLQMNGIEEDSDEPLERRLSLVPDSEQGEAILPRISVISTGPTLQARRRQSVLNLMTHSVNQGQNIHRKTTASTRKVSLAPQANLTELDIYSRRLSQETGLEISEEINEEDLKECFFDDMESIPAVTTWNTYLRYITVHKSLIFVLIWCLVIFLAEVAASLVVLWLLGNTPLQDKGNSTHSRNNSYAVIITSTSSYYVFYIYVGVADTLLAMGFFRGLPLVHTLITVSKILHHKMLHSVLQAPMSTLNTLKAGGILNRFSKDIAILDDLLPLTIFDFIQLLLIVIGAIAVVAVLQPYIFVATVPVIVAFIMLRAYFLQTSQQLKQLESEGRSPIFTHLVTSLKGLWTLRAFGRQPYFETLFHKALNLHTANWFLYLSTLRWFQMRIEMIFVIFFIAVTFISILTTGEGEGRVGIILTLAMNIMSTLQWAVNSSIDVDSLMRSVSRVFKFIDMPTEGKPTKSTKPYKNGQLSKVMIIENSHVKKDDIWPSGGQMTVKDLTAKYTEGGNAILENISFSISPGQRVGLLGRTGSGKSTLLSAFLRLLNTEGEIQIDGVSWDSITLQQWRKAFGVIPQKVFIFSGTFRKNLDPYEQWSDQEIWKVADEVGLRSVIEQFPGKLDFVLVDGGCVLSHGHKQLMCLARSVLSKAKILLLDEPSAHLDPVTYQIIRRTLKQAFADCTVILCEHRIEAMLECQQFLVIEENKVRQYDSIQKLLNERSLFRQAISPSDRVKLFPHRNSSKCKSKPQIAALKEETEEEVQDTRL

Compound | EC50 [µM] | Emax [%]
Cc1ccccc1S(=O)(=O)N1CCN(C(C)c2nc3cc(Cl)ccc3c(=O)n2C)CC1 (centres unmarked) [compound 109] | 10 to 25 | 25 to 100
CC(c1nc2cc(Cl)ccc2c(=O)n1C)N1CCN(S(=O)(=O)c2ccc(S(C)(=O)=O)cc2)CC1 (centres unmarked) [compound 110] | 10 to 25 | < 25
CC(=O)Nc1ccc(S(=O)(=O)N2CCN(C(C)c3nc4cc(Cl)ccc4c(=O)n3C)CC2)cc1 (centres unmarked) [compound 111] | 10 to 25 | 25 to 100
CC(c1nc2cc(Cl)ccc2c(=O)n1C)N1CCN(C(=O)Cc2ccccc2)CC1 (centres unmarked) [compound 112] | 10 to 25 | < 25
Cc1cccc(CC(=O)N2CCN(C(C)c3nc4cc(Cl)ccc4c(=O)n3C)CC2)c1 (centres unmarked) [compound 113] | 10 to 25 | < 25
CC(c1nc2ccc(Br)cc2c(=O)n1C)N1CCN(S(=O)(=O)c2ccccc2)CC1 (centres unmarked) [compound 114] | 10 to 25 | 25 to 100
Cc1ccc(S(=O)(=O)N2CCN(C(C)c3nc4ccc(Br)cc4c(=O)n3C)CC2)cc1 (centres unmarked) [compound 115] | 10 to 25 | < 25
CC(c1nc2ccc(Br)cc2c(=O)n1C)N1CCN(S(=O)(=O)c2ccc(Cl)cc2)CC1 (centres unmarked) [compound 117] | 10 to 25 | 25 to 100
CC(c1nc2ccc(Br)cc2c(=O)n1C)N1CCN(S(=O)(=O)c2ccc(Br)cc2)CC1 (centres unmarked) [compound 118] | < 10 | 25 to 100
Cc1cccc(C(=O)N2CCN(C(C)c3nc4cc(Cl)ccc4c(=O)n3C)CC2)c1 (centres unmarked) [compound 119] | 10 to 25 | 25 to 100
Cc1ccc(C(=O)N2CCN(C(C)c3nc4cc(Cl)ccc4c(=O)n3C)CC2)cc1 (centres unmarked) [compound 120] | 10 to 25 | < 25
CC(c1nc2cc(Cl)ccc2c(=O)n1C)N1CCN(C(=O)c2ccc(F)cc2)CC1 (centres unmarked) [compound 121] | 10 to 25 | < 25
COc1ccc(C(=O)N2CCN(C(C)c3nc4cc(Cl)ccc4c(=O)n3C)CC2)cc1 (centres unmarked) [compound 122] | 10 to 25 | < 25
CC(c1nc2ccc(C#N)cc2c(=O)n1C)N1CCN(S(=O)(=O)c2ccccc2)CC1 (centres unmarked) [compound 123] | 10 to 25 | < 25
Cc1ccc(S(=O)(=O)N2CCN(C(C)c3nc4ccc(C#N)cc4c(=O)n3C)CC2)cc1 (centres unmarked) [compound 125] | 10 to 25 | 25 to 100
CC(c1nc2ccc(C#N)cc2c(=O)n1C)N1CCN(S(=O)(=O)c2ccc(Cl)cc2)CC1 (centres unmarked) [compound 126] | 10 to 25 | 25 to 100
COc1ccc(S(=O)(=O)N2CCN(Cc3nc4ccc(Cl)cc4c(=O)n3C)CC2)cc1 [compound 137] | 10 to 25 | 25 to 100
CC(c1nc2ccc(S(C)(=O)=O)cc2c(=O)n1C)N1CCN(S(=O)(=O)c2ccccc2)CC1 (centres unmarked) [compound 138] | 10 to 25 | < 25
Cc1ccc(S(=O)(=O)N2CCN(C(C)c3nc4ccc(S(C)(=O)=O)cc4c(=O)n3C)CC2)cc1 (centres unmarked) [compound 139] | 10 to 25 | 25 to 100
CC(c1nc2ccc(S(C)(=O)=O)cc2c(=O)n1C)N1CCN(S(=O)(=O)c2ccc(Cl)cc2)CC1 (centres unmarked) [compound 141] | 10 to 25 | 25 to 100
CC(c1nc2ccc(S(C)(=O)=O)cc2c(=O)n1C)N1CCN(S(=O)(=O)c2ccc(Br)cc2)CC1 (centres unmarked) [compound 142] | 10 to 25 | 25 to 100
CC(c1nc2ccc(N)cc2c(=O)n1C)N1CCN(S(=O)(=O)c2ccc(Br)cc2)CC1 (centres unmarked) [compound 146] | < 10 | > 100
COc1ccc(S(=O)(=O)N2CCN(C(C)(C)c3nc4ccc(Cl)cc4c(=O)n3C)CC2)cc1 [compound 149] | < 10 | 25 to 100
CCCn1c(CN2CCN(S(=O)(=O)c3ccc(Cl)cc3)CC2)nc2ccccc2c1=O [compound 151] | 10 to 25 | > 100
CCCn1c(CN2CCN(S(=O)(=O)c3ccc(Br)cc3)CC2)nc2ccccc2c1=O [compound 152] | < 10 | > 100
CC(c1nc2ccc(-c3nnn[nH]3)cc2c(=O)n1C)N1CCN(S(=O)(=O)c2ccc(Cl)cc2)CC1 (centres unmarked) [compound 154] | 25 to 60 | > 100

More lines, now with the values ahead:

EC50 [µM] | Emax [%] | Compound
< 10 | 25 to 100 | COc1ccc(S(=O)(=O)N2CCN(C(C)c3nc4ccc(Br)cc4c(=O)n3C)CC2)cc1 (centres unmarked) [compound 116]
10 to 25 | 25 to 100 | COc1ccc(S(=O)(=O)N2CCN(C(C)c3nc4ccc(C#N)cc4c(=O)n3C)CC2)cc1 (centres unmarked) [compound 124]
10 to 25 | 25 to 100 | CC(c1nc2ccccc2c(=O)[nH]1)N1CCN(S(=O)(=O)c2ccc(Br)cc2)CC1 (centres unmarked) [compound 127]
10 to 25 | < 25 | CC(c1nc2ccccc2c(=O)[nH]1)N1CCN(S(=O)(=O)c2ccccc2)CC1 (centres unmarked) [compound 128]
10 to 25 | < 25 | Cc1ccc(S(=O)(=O)N2CCN(C(C)c3nc4ccccc4c(=O)[nH]3)CC2)cc1 (centres unmarked) [compound 129]
10 to 25 | < 25 | COc1ccc(S(=O)(=O)N2CCN(C(C)c3nc4ccccc4c(=O)[nH]3)CC2)cc1 (centres unmarked) [compound 130]
10 to 25 | < 25 | CC(c1nc2ccccc2c(=O)[nH]1)N1CCN(S(=O)(=O)c2ccc(Cl)cc2)CC1 (centres unmarked) [compound 131]
< 10 | > 100 | COc1ccc2nc(C(C)N3CCN(S(=O)(=O)c4ccc(Br)cc4)CC3)n(C)c(=O)c2c1 (centres unmarked) [compound 132]
10 to 25 | 25 to 100 | COc1ccc2nc(C(C)N3CCN(S(=O)(=O)c4ccccc4)CC3)n(C)c(=O)c2c1 (centres unmarked) [compound 133]
10 to 25 | 25 to 100 | COc1ccc2nc(C(C)N3CCN(S(=O)(=O)c4ccc(C)cc4)CC3)n(C)c(=O)c2c1 (centres unmarked) [compound 134]
10 to 25 | 25 to 100 | COc1ccc(S(=O)(=O)N2CCN(C(C)c3nc4ccc(OC)cc4c(=O)n3C)CC2)cc1 (centres unmarked) [compound 135]
< 10 | > 100 | COc1ccc2nc(C(C)N3CCN(S(=O)(=O)c4ccc(Cl)cc4)CC3)n(C)c(=O)c2c1 (centres unmarked) [compound 136]
10 to 25 | 25 to 100 | COc1ccc(S(=O)(=O)N2CCN(C(C)c3nc4ccc(S(C)(=O)=O)cc4c(=O)n3C)CC2)cc1 (centres unmarked) [compound 140]
25 to 60 | 25 to 100 | COc1ccc(S(=O)(=O)N2CCN(C(C)c3nc4ccc(C(N)=O)cc4c(=O)n3C)CC2)cc1 (centres unmarked) [compound 143]
25 to 60 | 25 to 100 | COc1ccc(S(=O)(=O)N2CCN(C(C)c3nc4ccc(-c5nnn[nH]5)cc4c(=O)n3C)CC2)cc1 (centres unmarked) [compound 144]
10 to 25 | 25 to 100 | COc1ccc(S(=O)(=O)N2CCN(C(C)c3nc4ccc(N)cc4c(=O)n3C)CC2)cc1 (centres unmarked) [compound 145]
< 10 | > 100 | CCCn1c([C@H](C)N2CCN(S(=O)(=O)c3ccc(Br)cc3)CC2)nc2ccccc2c1=O [compound 147]
< 10 | > 100 | CCCn1c([C@@H](C)N2CCN(S(=O)(=O)c3ccc(Br)cc3)CC2)nc2ccccc2c1=O [compound 148]
10 to 25 | 25 to 100 | CCCn1c(CN2CCN(S(=O)(=O)c3ccc(OC)cc3)CC2)nc2ccccc2c1=O [compound 150]
10 to 25 | 25 to 100 | CC(c1nc2ccccc2c(=O)n1CCO)N1CCN(S(=O)(=O)c2ccc(Br)cc2)CC1 (centres unmarked) [compound 153]
